Experimental findings from patent publication US20160170302A1, “NOVEL COMPOUND” (TOKYO OHKA KOGYO CO., LTD., priority 2011, published 2016) are described below.

This data set in a line: Solubility to organic solvents PM and AN. The settings on record: for Solubility to Solvent AN: solvent: cyclohexanone (AN); for Solubility to Solvent PM: solvent: propylene glycol monomethyl ether acetate (PM).

Take `CCO[Si](C)(CCCN)OCC` [Comparative Compound 6, reference compound]: the “Solubility to Solvent AN” value is more than 50 mass % and the “Solubility to Solvent PM” value was more than 50 mass %.
With `CCN(CC)C(=O)/C=C/c1ccc(OC)cc1` [Compound 1], the “Solubility to Solvent AN” value is more than 50 mass % and the “Solubility to Solvent PM” value is more than 50 mass %.
Regarding `COc1ccc(/C=C/C(=O)Nc2ccccc2)cc1` [Compound 2], the “Solubility to Solvent AN” value is more than 50 mass % and the “Solubility to Solvent PM” value is reported as more than 50 mass %.
For `COc1ccc(/C=C/C(=O)n2ccnc2)cc1` [Compound 3], the “Solubility to Solvent AN” value was more than 50 mass % and the “Solubility to Solvent PM” value was more than 50 mass %.
On to `COc1ccc(/C=C/C(=O)n2ccnc2)cc1[N+](=O)[O-]` [Compound 6], for which the “Solubility to Solvent AN” value was more than 50 mass % and the “Solubility to Solvent PM” value is recorded as more than 50 mass %.
For `CCN(CC)C(=O)/C=C/c1ccc(OC)cc1[N+](=O)[O-]` [Compound 9], the “Solubility to Solvent AN” value is reported as more than 50 mass % and the “Solubility to Solvent PM” value is on record as more than 50 mass %.
Consider `CCN(CC)C(=O)/C=C/c1ccc(OC)c([N+](=O)[O-])c1` [Compound 10], for which the “Solubility to Solvent AN” value is reported as more than 50 mass % and the “Solubility to Solvent PM” value is more than 50 mass %.
As to `CCN(CC)C(=O)/C(C)=C/c1ccc(OC)cc1[N+](=O)[O-]` [Compound 11], the “Solubility to Solvent AN” value is recorded as more than 50 mass % and the “Solubility to Solvent PM” value was more than 50 mass %.
`CCN(CC)C(=O)/C(C)=C/c1ccc(OC)c([N+](=O)[O-])c1` [Compound 12]: the “Solubility to Solvent AN” value was more than 50 mass % and the “Solubility to Solvent PM” value is more than 50 mass %.
For the molecule `COc1ccc(/C=C/C(=O)N2CCCCC2)c([N+](=O)[O-])c1` [Compound 13], the “Solubility to Solvent AN” value is given as more than 50 mass % and the “Solubility to Solvent PM” value was more than 50 mass %.
`COc1ccc(/C=C/C(=O)N2CCCCC2)cc1[N+](=O)[O-]` [Compound 14]: the “Solubility to Solvent AN” value is recorded as more than 50 mass % and the “Solubility to Solvent PM” value is more than 50 mass %.
Turning to `COc1ccc(/C=C(\C)C(=O)N2CCCCC2)c([N+](=O)[O-])c1` [Compound 15], the “Solubility to Solvent AN” value is given as more than 50 mass % and the “Solubility to Solvent PM” value is more than 50 mass %.
In the case of `COc1ccc(/C=C(\C)C(=O)N2CCCCC2)cc1[N+](=O)[O-]` [Compound 16], the “Solubility to Solvent AN” value is recorded as more than 50 mass % and the “Solubility to Solvent PM” value is listed as more than 50 mass %.
As to `COc1ccc(/C=C/C(=O)N2CCCCC2)cc1` [Compound 17], the “Solubility to Solvent AN” value is more than 50 mass % and the “Solubility to Solvent PM” value was more than 50 mass %.
For `COc1ccc(/C=C(\C)C(=O)n2ccnc2)cc1` [Compound 18], the “Solubility to Solvent AN” value was more than 50 mass % and the “Solubility to Solvent PM” value is on record as more than 50 mass %.
`CCN(CC)C(=O)/C(C)=C/c1ccc(OC)cc1` [Compound 19]: the “Solubility to Solvent AN” value was more than 50 mass % and the “Solubility to Solvent PM” value is recorded as more than 50 mass %.
Regarding `COc1ccc(/C=C(\C)C(=O)Nc2ccccc2)cc1` [Compound 20], the “Solubility to Solvent AN” value is recorded as more than 50 mass % and the “Solubility to Solvent PM” value is on record as more than 50 mass %.
